Laboratory results taken from patent US12453709B2, “Compositions and methods for treating autism” (priority 2013, dated 2025).

Test system: male patients diagnosed with autism
Assay: Study HT 02-121: Social Responsiveness Scale (SRS-2)
Assay type: in vivo, human
Settings: for SRS-2 Total T-Score: patients changing category of severity: placebo 2; for SRS-2 DSM-5 Social, Communication and Interaction T-score: patients with changes in severity categorization / SRS-2 Social Communication T-score: patients with categorical improvement / SRS-2 Social Motivation T-score: patients with categorical changes in clinical severity: placebo 3
Method: This clinical study was a randomized double-blind, placebo-controlled two-cohort, 4-week dose-escalation study that incorporated two open-label treatment groups to assess the safety and efficacy of L1-79 100 mg and 200 mg TID in male patients between the ages of […] years of age diagnosed with autism. The first cohort of 20 patients was comprised of three groups of patients: The first group of five patients received open-label L1-79 100 mg TID and underwent PK and EKG assessments. The remaining two groups in this cohort consisted of 15 patients randomized on a 2:1 basis to receive L1-79 100 mg TID or placebo. The PK and safety data from the open-label L1-79 100 mg TID group was submitted to FDA for review and acceptance before the second cohort was enrolled. The second cohort was procedurally identical to the first. The second cohort of 20 patients was comprised of the same three groups of patients but a dose of 200 mg TID was used instead of 100 mg TID. The key inclusion criteria were as follows: (1) males between 13 and 21 years of age, (2) DSM-5 compliant diagnosis of autism spectrum disorder, confirmed by the Autistic Diagnosis Interview Review (ADIR), and by an ADOS-2 score consistent with a diagnosis of autism, (3) must have been stable on no more than one concomitant medication and no planned changes in psychosocial interventions during the study.
The primary efficacy endpoint was the determination of the clinical improvement by the investigator as documented by the Clinical Global Impression (CGI) rating scales. Additional efficacy endpoints included: (1) changes from baseline in the Socialization and Communication Domains of the Vineland Adaptive Behavior Scales, Second Edition (VABS II) parent/caregiver rating form, (2) changes from baseline in the ADOS-2 Total Score and subscores, (3) changes in the Social Responsiveness Scale, Second Edition (SRS-2) Total Score and subscales, (4) changes in the ABC-C domains, (5) changes in the Repetitive Behavior Scale-Revised (RBS-R) Total Score and subscales. Given the exploratory design of this study only descriptive statistics were planned.
In the preliminary study, all forms were completed at the study site in the presence of the investigator. In Cohort 1 of the present study, the VABS-II, SRS-2, ABC-C and RBS-R were filled out at home by the patient/patient's families prior to treatment visits and returned at treatment visits in order to expedite the execution of the study.
This definition is consistent with accepted standards for judging mid and long term outcomes for experimental treatments studied in nearly every disorder, including autism. […] In ASD, children often go through periods of mild to moderate improvement or worsening in their behavioral, social and emotional symptom regulation related to a variety of identifiable and as yet unidentified factors (Boso, 2010; Jyonouchi, 2011). Thus, in a study of short duration, a ‘baseline’ measure may in fact be at the apex, midpoint or nadir of one of these oscillations.
The Social Communication and Interaction scale are comprised of the DSM-5 criteria that make up the social communication and social interaction deficits required for the diagnosis of ASD.

For `CC(N)(Cc1ccc(O)cc1)C(=O)O` (racemic) [L1-79, α-methyl-DL-tyrosine], the “SRS-2 Total T-Score: patients changing category of severity” value (100 mg group) was 2 patients, the “SRS-2 DSM-5 Social, Communication and Interaction T-score: patients with changes in severity categorization” value (100 mg group) was 2 patients and the “SRS-2 Social Communication T-score: patients with categorical improvement” value (100 mg group) was 3 patients. For the same compound, the “SRS-2 Social Motivation T-score: patients with categorical changes in clinical severity” value (100 mg group) was 4 patients, the “SRS-2 Total T-Score: patients changing category of severity” value (200 mg group) was 3 patients and the “SRS-2 DSM-5 Social, Communication and Interaction T-score: patients with changes in severity categorization” value (200 mg group) was 4 patients. The “SRS-2 Social Communication T-score: patients with categorical improvement” value (200 mg group) was 4 patients, the “SRS-2 Social Motivation T-score: patients with categorical changes in clinical severity” value (200 mg group) was 6 patients and the “SRS-2 DSM-5 Restricted and Repetitive Behavior T-score Mean Change from Baseline” value (DB 100 mg TID, Week 4/LOCF) was −0.4. For the same compound, the “SRS-2 DSM-5 Restricted and Repetitive Behavior T-score Treatment effect versus placebo” value (DB 100 mg TID, Week 4/LOCF) was 7.2, the “SRS-2 DSM-5 Restricted and Repetitive Behavior T-score change, median” value (DB 100 mg TID, Week 4/LOCF) was −3, 0, 5 and the “SRS-2 DSM-5 Social, Communication and Interaction T-score Mean Change from Baseline” value (DB 100 mg TID, Week 4/LOCF) was 0.6. The “SRS-2 DSM-5 Social, Communication and Interaction T-score Treatment effect versus placebo” value (DB 100 mg TID, Week 4/LOCF) was 4.8, the “SRS-2 DSM-5 Social, Communication and Interaction T-score change, median” value (DB 100 mg TID, Week 4/LOCF) was −3, 2, 5 and the “SRS-2 Social Communication T-score Mean Change from Baseline” value (DB 100 mg TID, Week 4/LOCF) was 1.1. For the same compound, the “SRS-2 Social Communication T-score Treatment effect versus placebo” value (DB 100 mg TID, Week 4/LOCF) was 6.0, the “SRS-2 Social Communication T-score change, median” value (DB 100 mg TID, Week 4/LOCF) was −5, 0, 6 and the “SRS-2 Social-Motivation T-score Mean Change from Baseline” value (DB 100 mg TID, Week 4/LOCF) was −1.4. For the same compound, the “SRS-2 Social-Motivation T-score Treatment effect versus placebo” value (DB 100 mg TID, Week 4/LOCF) was 0.3, the “SRS-2 Social-Motivation T-score change, median” value (DB 100 mg TID, Week 4/LOCF) was −7, −4, 8 and the “SRS-2 Total T-score Mean Change from Baseline” value (DB 100 mg TID, Week 4/LOCF) was −0.4. For the same compound, the “SRS-2 Total T-score Treatment effect versus placebo” value (DB 100 mg TID, Week 4/LOCF) was 4.8, the “SRS-2 Total T-score change, median” value (DB 100 mg TID, Week 4/LOCF) was −3, −1, 3 and the “SRS-2 DSM-5 Restricted and Repetitive Behavior T-score Mean Change from Baseline” value (DB 200 mg TID, Week 4/LOCF) was −7.6. The “SRS-2 DSM-5 Restricted and Repetitive Behavior T-score Treatment effect versus placebo” value (DB 200 mg TID, Week 4/LOCF) was −0.0, the “SRS-2 DSM-5 Restricted and Repetitive Behavior T-score change, median” value (DB 200 mg TID, Week 4/LOCF) was −22, −3, 3 and the “SRS-2 DSM-5 Social, Communication and Interaction T-score Mean Change from Baseline” value (DB 200 mg TID, Week 4/LOCF) was −7.6. The “SRS-2 DSM-5 Social, Communication and Interaction T-score Treatment effect versus placebo” value (DB 200 mg TID, Week 4/LOCF) was −3.4, the “SRS-2 DSM-5 Social, Communication and Interaction T-score change, median” value (DB 200 mg TID, Week 4/LOCF) was −18, −3, 0 and the “SRS-2 Social Communication T-score Mean Change from Baseline” value (DB 200 mg TID, Week 4/LOCF) was −8.3. For the same compound, the “SRS-2 Social Communication T-score Treatment effect versus placebo” value (DB 200 mg TID, Week 4/LOCF) was −3.4, the “SRS-2 Social Communication T-score change, median” value (DB 200 mg TID, Week 4/LOCF) was −16, −4, −1 and the “SRS-2 Social-Motivation T-score Mean Change from Baseline” value (DB 200 mg TID, Week 4/LOCF) was −10.6. The “SRS-2 Social-Motivation T-score Treatment effect versus placebo” value (DB 200 mg TID, Week 4/LOCF) was −8.9, the “SRS-2 Social-Motivation T-score change, median” value (DB 200 mg TID, Week 4/LOCF) was −21, −6, 0 and the “SRS-2 Total T-score Mean Change from Baseline” value (DB 200 mg TID, Week 4/LOCF) was −7.7. For the same compound, the “SRS-2 Total T-score Treatment effect versus placebo” value (DB 200 mg TID, Week 4/LOCF) was −2.5, the “SRS-2 Total T-score change, median” value (DB 200 mg TID, Week 4/LOCF) was −19, 3, 0 and the “average improvement of SRS-2 Total, DSM-5 Social Communication and Interaction, Social Communication and Social Motivation T-scores” value (L1-79 200 mg treated group) was roughly 8 points. For the same compound, the “SRS-2 T-scores: magnitude and number/percent of responders compared to placebo” value (L1-79 200 mg, Week 4/LOCF) was “greater”.
